Common to all, as to type: in vivo
The subject of test [1] is Cotton. Briefly: Postemergence Herbicidal Activity, Cotton. The following applies: Gossypium hirsutum, post-emergence; for plant injury at 2000 g/ha: 2.0 kg/ha; for plant injury at 1000 g/ha: 1.0 kg/ha. Summed up:
(§1)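 Percent control scored after pre- or postemergence treatment at rates in kg/ha, using test compounds generally formulated in 50/50 acetone/water.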

Test [2] concerns Field Bindweed. Briefly: Postemergence Herbicidal Activity, Field Bindweed. The following applies: post-emergence; for pest or weed control at 2000 g/ha: 2.0 kg/ha; for pest or weed control at 1000 g/ha: 1.0 kg/ha. Summed up:
as §1

The test system of test [3] is Soybean. Briefly: Preemergence Herbicidal Activity, Soybean. The following applies: Glycine max, pre-emergence; for plant injury at 2000 g/ha: 2.0 kg/ha; for plant injury at 1000 g/ha: 1.0 kg/ha. Summed up:
(§2)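 Kilogram-per-hectare application rates; outcome scored by percent control of treated plants.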

Test [4] relates to Soybean. Briefly: Postemergence Herbicidal Activity, Soybean. The following applies: Glycine max, post-emergence; for plant injury at 2000 g/ha: 2.0 kg/ha; for plant injury at 1000 g/ha: 1.0 kg/ha. Summed up:
as §2

Test [5] concerns Barnyardgrass. Briefly: Postemergence Herbicidal Activity, Barnyardgrass. The following applies: Echinochloa crus-galli, post-emergence; for pest or weed control at 2000 g/ha: 2.0 kg/ha; for pest or weed control at 1000 g/ha: 1.0 kg/ha. Summed up: (§3)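 Application rate is expressed per hectare in kilograms. Values are percent control.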
For test [6], the system named is Field Bindweed. Briefly: Preemergence Herbicidal Activity, Field Bindweed. The following applies: pre-emergence; for pest or weed control at 2000 g/ha: 2.0 kg/ha; for pest or weed control at 1000 g/ha: 1.0 kg/ha. Summed up: as §1
Test [7] concerns Wheat. Briefly: Preemergence Herbicidal Activity, Wheat. The following applies: Triticum aestivum, pre-emergence; for plant injury at 2000 g/ha: 2.0 kg/ha; for plant injury at 1000 g/ha: 1.0 kg/ha. Summed up:
as §2

Test [8] deals with Rice. Briefly: Postemergence Herbicidal Activity, Rice. The following applies: Oryza sativa, post-emergence; for plant injury at 2000 g/ha: 2.0 kg/ha; for plant injury at 1000 g/ha: 1.0 kg/ha. Summed up:
as §2

The subject of test [9] is Field Corn. Briefly: Postemergence Herbicidal Activity, Field Corn. The following applies: Zea mays, post-emergence; for plant injury at 2000 g/ha: 2.0 kg/ha; for plant injury at 1000 g/ha: 1.0 kg/ha. Summed up:
as §2

The subject of test [10] is Cotton. Briefly: Preemergence Herbicidal Activity, Cotton. The following applies: Gossypium hirsutum, pre-emergence; for plant injury at 2000 g/ha: 2.0 kg/ha; for plant injury at 1000 g/ha: 1.0 kg/ha. Summed up:
as §1

In test [11] the test system is Rice. Briefly: Preemergence Herbicidal Activity, Rice. The following applies: Oryza sativa, pre-emergence; for plant injury at 2000 g/ha: 2.0 kg/ha; for plant injury at 1000 g/ha: 1.0 kg/ha. Summed up: as §2
For test [12], the system named is Barnyardgrass. Briefly: Preemergence Herbicidal Activity, Barnyardgrass. The following applies: Echinochloa crus-galli, pre-emergence; for pest or weed control at 2000 g/ha: 2.0 kg/ha; for pest or weed control at 1000 g/ha: 1.0 kg/ha. Summed up: as §3
Test [13] concerns Green Foxtail. Briefly: Postemergence Herbicidal Activity, Green Foxtail. The following applies: Setaria viridis, post-emergence; for pest or weed control at 2000 g/ha: 2.0 kg/ha; for pest or weed control at 1000 g/ha: 1.0 kg/ha. Summed up: as §3
In test [14] the test system is Morningglory. Briefly: Preemergence Herbicidal Activity, Morningglory. The following applies: Ipomoea, pre-emergence; for pest or weed control at 2000 g/ha: 2.0 kg/ha; for pest or weed control at 1000 g/ha: 1.0 kg/ha. Summed up: as §1
The test system of test [15] is Morningglory. Briefly: Postemergence Herbicidal Activity, Morningglory. The following applies: Ipomoea, post-emergence; for pest or weed control at 2000 g/ha: 2.0 kg/ha; for pest or weed control at 1000 g/ha: 1.0 kg/ha. Summed up:
as §1

Test [16] deals with Velvetleaf. Briefly: Preemergence Herbicidal Activity, Velvetleaf. The following applies: Abutilon theophrasti, pre-emergence; for pest or weed control at 2000 g/ha: 2.0 kg/ha; for pest or weed control at 1000 g/ha: 1.0 kg/ha. Summed up: as §1
The test system of test [17] is Velvetleaf. Briefly: Postemergence Herbicidal Activity, Velvetleaf. The following applies: Abutilon theophrasti, post-emergence; for pest or weed control at 2000 g/ha: 2.0 kg/ha; for pest or weed control at 1000 g/ha: 1.0 kg/ha. Summed up:
as §1

The subject of test [18] is Wheat. Briefly: Postemergence Herbicidal Activity, Wheat. The following applies: Triticum aestivum, post-emergence; for plant injury at 2000 g/ha: 2.0 kg/ha; for plant injury at 1000 g/ha: 1.0 kg/ha. Summed up: as §2
The test system of test [19] is Johnsongrass. Briefly: Preemergence Herbicidal Activity, Johnsongrass. The following applies: Sorghum halepense, pre-emergence; for pest or weed control at 2000 g/ha: 2.0 kg/ha; for pest or weed control at 1000 g/ha: 1.0 kg/ha. Summed up:
as §3

Test [20] has as its system Johnsongrass. Briefly: Postemergence Herbicidal Activity, Johnsongrass. The following applies: Sorghum halepense, post-emergence; for pest or weed control at 2000 g/ha: 2.0 kg/ha; for pest or weed control at 1000 g/ha: 1.0 kg/ha. Summed up: as §3
The test system of test [21] is Green Foxtail. Briefly: Preemergence Herbicidal Activity, Green Foxtail. The following applies: Setaria viridis, pre-emergence; for pest or weed control at 2000 g/ha: 2.0 kg/ha; for pest or weed control at 1000 g/ha: 1.0 kg/ha. Summed up: as §3
For test [22], the system named is Field Corn. Briefly: Preemergence Herbicidal Activity, Field Corn. The following applies: Zea mays, pre-emergence; for plant injury at 2000 g/ha: 2.0 kg/ha; for plant injury at 1000 g/ha: 1.0 kg/ha. Summed up:
as §2

By plant injury is commonly meant how far the test organism was held down. Low values mean weak suppression, high ones strong suppression. One may read the pest or weed control as the degree to which the test organism was suppressed or injured, in per cent. A higher pest or weed control goes with a strong effect. Consider `CCS(=O)(=O)N(c1cc(-n2nnn(CCCF)c2=O)c(Cl)cc1F)S(=O)(=O)CC` [Compound 37, 1-[2-Chloro-4-fluoro-5-[bis(N--ethylsulfonyl)amino]phenyl]-4,5-dihydro-4-(3-fluoropropyl)-5H--tetrazol-5-one], for which the plant injury at 2000 g/ha in the test with Cotton [1] was 70%; in the test on Soybean [3] it was 0%; with Soybean [4] it was 40%; in the test on Wheat [7] it was 30%; in the test with Rice [8], 20%; in the test with Field Corn [9], 20%. Moreover, the plant injury at 2000 g/ha was 10% in the test with Cotton [10], 0% with Rice [11], 20% with Wheat [18] and 20% in the test on Field Corn [22]. Besides, the pest or weed control at 2000 g/ha in the test with Field Bindweed [2] came out at 40%; in the test with Barnyardgrass [5], 30%; with Field Bindweed [6], 20%; in the test with Barnyardgrass [12], 80%; in the test on Green Foxtail [13], 50%; with Morningglory [14], 20%. For the same compound, the pest or weed control at 2000 g/ha in the test on Morningglory [15] amounted to 50%; in the test with Velvetleaf [16], 100%; in the test on Velvetleaf [17], 80%; in the test with Johnsongrass [19], 70%; with Johnsongrass [20], 20%; with Green Foxtail [21], 50%.

For `CS(=O)(=O)Nc1cc(-n2nnn(CCCF)c2=O)c(Cl)cc1F` [Compound 38, 1-[2-Chloro-4-fluoro-5-(N--methylsulfonylamino)phenyl]-4,5-dihydro-4-(3-fluoropropyl)-5H--tetrazol-5-one], the plant injury at 1000 g/ha in the test on Cotton [1] was determined as 95%; in the test on Soybean [3] it was 50%; in the test on Soybean [4], 90%; in the test with Wheat [7] it was 10%; in the test with Rice [8] it was 20%; with Field Corn [9], 50%. The plant injury at 1000 g/ha was 70% in the test with Cotton [10], 40% in the test with Rice [11], 50% in the test on Wheat [18] and 10% with Field Corn [22]. For the same compound, the pest or weed control at 1000 g/ha in the test on Field Bindweed [2] was found to be 100%; in the test on Barnyardgrass [5], 50%; in the test with Field Bindweed [6] it was 95%; with Barnyardgrass [12], 80%; with Green Foxtail [13], 80%; in the test on Morningglory [14], 100%. Moreover, the pest or weed control at 1000 g/ha in the test with Morningglory [15] stood at 100%; in the test on Velvetleaf [16], 100%; with Velvetleaf [17] it was 100%; with Johnsongrass [19], 40%; with Johnsongrass [20], 80%; with Green Foxtail [21], 80%.

As to `CCS(=O)(=O)Nc1cc(-n2nnn(CCCF)c2=O)c(Cl)cc1F` [Compound 39, 1-[2-Chloro-4-fluoro-5-(N--ethylsulfonylamino)phenyl]-4,5-dihydro-4-(3-fluoropropyl)-5H--tetrazol-5-one], the plant injury at 1000 g/ha in the test with Cotton [1] is 100%; in the test on Soybean [3], 10%; with Soybean [4] it was 95%; in the test with Wheat [7] it was 20%; with Rice [8], 20%; in the test with Field Corn [9] it was 50%. Also, the plant injury at 1000 g/ha in the test with Cotton [10] is 50%; with Rice [11] it was 10%; in the test with Wheat [18] it was 30%; in the test with Field Corn [22], 70%. The pest or weed control at 1000 g/ha in the test on Field Bindweed [2] is 100%; with Barnyardgrass [5] it was 50%; in the test on Field Bindweed [6] it was 70%; in the test with Barnyardgrass [12], 60%; in the test with Green Foxtail [13], 50%; in the test with Morningglory [14], 100%. Further, the pest or weed control at 1000 g/ha worked out at 100% in the test on Morningglory [15]; 100% in the test on Velvetleaf [16]; 100% with Velvetleaf [17]; 10% in the test on Johnsongrass [19]; 50% with Johnsongrass [20]; 50% with Green Foxtail [21].

For the compound `Cn1nnn(-c2cc(N(S(C)(=O)=O)S(C)(=O)=O)c(Cl)cc2F)c1=O` [Compound 40], the plant injury at 4000 g/ha came out at 40% in the test with Cotton [1] (4.0 kg/ha); 20% in the test on Soybean [3] (4.0 kg/ha); 20% in the test with Soybean [4] (4.0 kg/ha); 30% in the test with Wheat [7] (4.0 kg/ha); 10% in the test with Rice [8] (4.0 kg/ha); 20% in the test on Field Corn [9] (4.0 kg/ha). Moreover, the plant injury at 4000 g/ha in the test on Cotton [10] (4.0 kg/ha) turned out to be 50%; in the test with Rice [11] (4.0 kg/ha), 20%; in the test on Wheat [18] (4.0 kg/ha), 20%; in the test with Field Corn [22] (4.0 kg/ha), 30%. The pest or weed control at 4000 g/ha in the test on Field Bindweed [2] (4.0 kg/ha) stood at 40%; in the test on Barnyardgrass [5] (4.0 kg/ha), 60%; with Field Bindweed [6] (4.0 kg/ha) it was 40%; with Barnyardgrass [12] (4.0 kg/ha), 70%; in the test on Green Foxtail [13] (4.0 kg/ha) it was 30%; in the test on Morningglory [14] (4.0 kg/ha) it was 70%. The pest or weed control at 4000 g/ha in the test on Morningglory [15] (4.0 kg/ha) was 60%; in the test on Velvetleaf [16] (4.0 kg/ha), 100%; in the test on Velvetleaf [17] (4.0 kg/ha), 70%; with Johnsongrass [19] (4.0 kg/ha) it was 40%; in the test with Johnsongrass [20] (4.0 kg/ha), 30%; in the test on Green Foxtail [21] (4.0 kg/ha) it was 40%.

As to `CCCn1nnn(-c2cc(N(S(=O)(=O)CC)S(=O)(=O)CC)c(Cl)cc2F)c1=O` [Compound 49, 1-[4-Chloro-2-fluoro-5-[bis-(N--ethylsulfonyl)amino]phenyl]-4,5-dihydro-4-propyl-5H--tetrazol-5-one], the plant injury at 2000 g/ha worked out at 100% in the test with Cotton [1]; 20% in the test with Soybean [3]; 50% in the test with Soybean [4]; 95% in the test on Wheat [7]; 50% with Rice [8]; 80% in the test with Field Corn [9]. Besides, the plant injury at 2000 g/ha with Cotton [10] amounted to 90%; in the test on Rice [11], 70%; in the test on Wheat [18], 80%; with Field Corn [22], 90%. Further, the pest or weed control at 2000 g/ha is 80% in the test on Field Bindweed [2]; 95% with Barnyardgrass [5]; 80% with Field Bindweed [6]; 100% in the test with Barnyardgrass [12]; 95% with Green Foxtail [13]; 70% with Morningglory [14]. For the same compound, the pest or weed control at 2000 g/ha stood at 90% in the test with Morningglory [15]; 100% with Velvetleaf [16]; 100% in the test on Velvetleaf [17]; 80% in the test on Johnsongrass [19]; 90% with Johnsongrass [20]; 100% with Green Foxtail [21].

(Values after US4868321A, “Isothiocyanate intermediates” (FMC Corporation, priority 1988, dated 1989).)
